Entries after “also recorded” stand apart in the source; their conditions may differ. Read-outs that look alike come from different tables or passages of the source.
What was measured:
KM 12 = assay: MTT assay, 3 day exposure, KM12; type: cell-based, human; conditions: KM 12 (colon), read-out: GI50 values in cell lines, KM 12
Procedure: (§1) A range of compounds were evaluated in MTT assays following 3 day exposure against a panel of two human breast cancer cell lines MCF-7 (ER+) and MDA 468 (ER−), and two colon cancer cell lines KM12 and HCC 2998. In general the breast cell lines were more sensitive to the agents and the MDA 468 line the most sensitive of the four (Table 2). The benchmark active compound was 5-fluoro-2-(3,4-dimethoxyphenyl)benzothiazole (1) with GI50 values<0.1 nM against the two breast cell lines. […] The most interesting series of compounds were those combining a 5-fluoro group with two oxygenated substituents in the 3′,4′-positions where minor, seemingly conservative, structural changes were associated with a dramatic variations in activity (when compared to 1). […] In summary, this in vitro screen led to the identification of the fluorinated 2-(3,4-dimethoxyphenyl)benzothiazole structure as a novel antitumor pharmacophore with the 5-fluoro analogue (1) astride a pinnacle of activity.
(§2) The assays/methods used to generate the results referred to herein are well known to those skilled in the art and therefore it has not been necessary to describe them in detail.

MDA 468 = assay: MTT assay, 3 day exposure, MDA 468; type: cell-based; conditions: Homo sapiens, MDA 468 (breast), read-out: GI50 values in cell lines, MDA 468
Procedure: as §1, §2

[1] = system: NCI in vitro 60 human cancer cell panel; assay: NCI in vitro 60 human cancer cell panel, sulforhodamine B assay; type: cell-based; conditions: for sensitivity of cancer cell panels / antitumour activity in vitro: NCI mean GI50 graphs, FIGS. 1 and 8 to 12
Procedure: Results from the more extensive NCI in vitro 60 human cancer cell panel^15 corroborated the results (above). The mean GI50 values across the range of compounds (above), including the two series of esters (11-21) are an unremarkable 10-100 μM (data not shown); however, these values disguise significant cell selectivity. […] Full NCI mean GI50 graphs for compounds (1,2,3,4,101,102) are included herein as FIGS. 1 and 8 to 12.
The results shown on FIG. 1 were generated by treating the cells with an active agent for 48 hours, in this case compound 1, before determination of viability by sulforhodamine B assay.

HCC 2998 = assay: MTT assay, 3 day exposure, HCC 2998; type: cell-based; conditions: Homo sapiens, HCC 2998, 72 h, HCC 2998 (colon), MTT, 3 day exposure, triplicate; read-out: GI50 values in cell lines, HCC 2998
Procedure: as §1, §2

MCF-7 [2] = conditions: aminophenyl benzothiazole sensitive cells with inducible cyp lal; Hose et al 2003; cited from earlier work
MCF-7 [3] = assay: MTT assay, 3 day exposure, MCF-7; type: cell-based; conditions: Homo sapiens, read-out: GI50 values in cell lines, MCF-7
Procedure: as §1, §2

MCF-7 [4] = assay: Growth inhibition alone or in combination with resveratrol, MCF-7; type: cell-based, human; conditions: MCF-7 (cyp lal-inducible), resveratrol 51 μM
Procedure: The results shown in FIGS. 3a and 3b were generated using MCF-7 (FIG. 3a) and HCC 2998 (FIG. 3b) cells. The said cells were treated with DF 203 or compound 1, alone or in combination with resveratrol (51 μM) an inhibitor of cyp lal activity. It can be seen that in MCF-7 cells (cyp lal-inducible) the activity of DF 203 was abolished.

[5] = system: MCF-7, MDA 468, KM12 and HCC 2998; assay: MTT assay, panel of four cell lines, results in words; type: cell-based, human; conditions: compared to compound 1
Procedure: as §1

[6] = system: DNA of MCF-7, MDA 468, KM12 and HCC 2998 cells; assay: DNA adduct formation; type: cell-based, human; conditions: MCF-7, MDA 468, KM 12 and HCC 2998 cells; 10 μM, 24 hours
cyp lal [7] = assay: Induction of cyp lal gene transcription; type: cell-based
Procedure: These cell lines are known to be sensitive to compound 1 and 2-(4-amino-3-methylphenyl)-5-fluorobenzothiazole (102, 5F 203; NSC 703786; WO 95/06469) In cell lines which are sensitive to compound 1 only, cyp lal gene transcription was not induced.
The results shown in FIG. 2 were generated by treating the cells with 1 μM of an active agent for 24 hours before determination of changes in cyp lal gene expression.

cyp lbl = assay: Induction of cyp lbl gene transcription; type: cell-based
cyp lal [8] = assay: Induction of cyp lal protein expression by Western Blot; type: cell-based
Description: These findings have been verified following examination of induction of cyp lal protein expression by Western Blot. The following cell lines were used to represent sensitive models: MCF-7, MDA 468 (breast carcinoma), KM12 and HCC 2998 (colon carcinoma) lines.

cyp lal [9] = biological target: T1, cyp lal (Homo sapiens, UniProt P04798); assay: Inhibition of cyp lal (EROD) activity, de-ethylation of ethoxyresorufin by cyp lal microsomes; type: biochemical
T1 construct: host or cells: microsomes
T1 sequence (P04798 1-512): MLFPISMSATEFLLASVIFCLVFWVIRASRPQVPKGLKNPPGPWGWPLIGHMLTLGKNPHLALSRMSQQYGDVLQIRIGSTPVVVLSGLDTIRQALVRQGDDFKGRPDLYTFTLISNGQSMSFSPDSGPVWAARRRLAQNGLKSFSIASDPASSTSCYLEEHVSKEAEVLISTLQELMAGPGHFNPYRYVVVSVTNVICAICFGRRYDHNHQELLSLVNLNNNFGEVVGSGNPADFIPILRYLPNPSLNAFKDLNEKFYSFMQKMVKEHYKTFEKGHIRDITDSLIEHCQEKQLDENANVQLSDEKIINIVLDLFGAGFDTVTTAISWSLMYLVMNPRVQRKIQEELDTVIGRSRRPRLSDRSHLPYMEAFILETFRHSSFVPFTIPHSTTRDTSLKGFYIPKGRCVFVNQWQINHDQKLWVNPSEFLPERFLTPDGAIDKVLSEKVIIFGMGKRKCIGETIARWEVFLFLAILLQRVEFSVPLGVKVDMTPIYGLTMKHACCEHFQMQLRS
Procedure: Compound 1 inhibits cyp lal (EROD) activity in a dose dependent manner (IC50=8 μM; FIG. 4).
The results shown in FIG. 4 were generated by measuring the de-ethylation of ethoxyresorufin by cyp lal microsomes in the absence and the presence of increasing concentrations of compound 1. DF 203 was used as a positive control.

[10] = Homo sapiens, KM12, 72 h, MTT, 3 day exposure, triplicate
[11] = 72 h, MTT, 3 day exposure, triplicate
[12] = MCF7, 72 h, MCF-7 (breast), MTT, 3 day exposure, triplicate
[13] = MCF7, MCF-7 (breast), value in nM

Row | SMILES | GI50 (HCC 2998) [nM] | GI50 (MCF-7 [3]; [12]) [nM] | melting point [°C] | GI50 (MCF-7 [3]; [13]) [nM] | GI50 (KM 12; [10]) [nM] | GI50 (MDA 468; [11]) [nM] | sensitivity of cancer cell panels / antitumour activity in vitro [1] | GI50 (MDA 468; value in nM) [nM] | growth inhibitory potency in words [5] | further results
1 | Cc1cc(-c2nc3cc(F)ccc3s2)ccc1N [Compound 102, 2-(4-amino-3-methylphenyl)-5-fluorobenzothiazole, reference compound] | > 100000 | < 0.1 | – | – | > 100000 | < 0.1 | non-small cell lung, ovarian, renal and breast cancel cells to be particularly sensitive | – | – | effect of resveratrol on activity (MCF-7 [2]): block the activity
2 | Cc1cc(-c2nc3ccccc3s2)ccc1N [Compound 101, 2-(4-amino-3-methylphenyl)benzothiazole, reference compound] | > 100000 | < 0.1 | – | – | > 100000 | < 0.1 | ovarian and breast cancer cells are particularly sensitive | – | – | effect of resveratrol on growth inhibitory activity (MCF-7 [4]): block the activity; effect of resveratrol on growth inhibitory activity (MCF-7 [4]; listed as DF 203): abolished
3 | COc1ccc(-c2nc3ccccc3s2)cc1OC [Compound 4, 2-(3,4-Dimethoxyphenyl)benzothiazole] | – | – | 141 to 143 | – | – | 530 | no cancer cells to be particularly sensitive; also recorded: attenuated pattern of activity | – | retained sub-micromolar activity against MDA 468 | –

Further lines, with some results ahead:

Row | GI50 (HCC 2998) [nM] | GI50 (MCF-7 [3]; [12]) [nM] | melting point [°C] | GI50 (MCF-7 [3]; [13]) [nM] | SMILES | GI50 (KM 12; [10]) [nM] | GI50 (MDA 468; [11]) [nM] | sensitivity of cancer cell panels / antitumour activity in vitro [1] | GI50 (MDA 468; value in nM) [nM] | growth inhibitory potency in words [5] | further results
4 | – | 5 | 129 | 2.9 | COc1ccc(-c2nc3c(F)cccc3s2)cc1OC [Compound 2, 4-Fluoro-2-(3,4-dimethoxyphenyl)benzothiazole] | 850 | 5 | reduced activity against cancer cells when compared to compound 1; also recorded: substantial potent and selective antitumour activity; also recorded: potent (but attenuated compared to 1), activity in the colon and NSCL sub-panels | 3.4 | retained nanomolar growth inhibitory potency against one or more of the cell lines | GI50 (KM 12; value in nM): 78.4 nM; DNA adducts formed [6]: One major adduct species
5 | 6210 | 62 | 153 to 155 | – | COc1ccc(-c2nc3ccc(F)cc3s2)cc1OC [Compound 3, 6-Fluoro-2-(3,4-dimethoxyphenyl)benzothiazole] | 24100 | 5 | reduced activity against cancer cells when compared to compound 1; also recorded: demonstrates antitumour activity in vitro; also recorded: potent (but attenuated compared to 1), activity in the colon and NSCL sub-panels | – | retained nanomolar growth inhibitory potency against one or more of the cell lines | –
6 | 0.25 | < 0.1 | – | < 0.1 | COc1ccc(-c2nc3cc(F)ccc3s2)cc1OC [Compound 1, 2-(3,4-dimethoxyphenyl)-5-fluorobenzothiazole] | 290 | < 0.1 | – | < 0.1 | – | induction of cyp lal gene transcription (cyp lal [7]; MCF-7, T-47D, TK-10, NC1 and 1460 cells, 1 μM, 24 hours): able to induce cyp lal gene transcription; induction of cyp lal gene transcription (cyp lal [7]; cell lines which are sensitive to compound 1 only): not induced; induction of cyp lbl gene transcription (cyp lbl): can be induced; induction of cyp lbl transcription (cyp lbl; certain compound 1-sensitive colon and lung carcinoma cells): no induction of cyp-lbl transcription; induction of cyp lal protein (cyp lal [8]; colon cell lines KM12 and HCC 2998): not induced; induction of cyp lal protein (cyp lal [8]; lysates of MCF-7 and MDA 468 breast cells): Induction of cyp lal protein was observed; IC50 (cyp lal [9]): 8000 nM; GI50 ([1]; Homo sapiens, colon and NSCL sub-panels, 48 hours, read-out: GI50 values against some cell lines): < 10 nM

Reference: patent US7384966B2, “2-arylbenzothiazole derivatives” (Pharminxo Limited, priority 2004, dated 2008)
